Measured values reported in US8669380B2, “Dioxa-bicyclo[3.2.1]octane-2,3,4-triol derivatives” (Pfizer Inc., priority 2009, dated 2014).
“And” between values parts separate entries of the source, which are not always exact repeats. Equal entries are not always repeated. Where two headings read alike, the source gives them in different places.

How the values were obtained:
human SGLT2 = human SGLT2 (Homo sapiens (Human), UniProt P31639); test: SGLT2 functional assay: inhibition of AMG uptake in CHO-FlpIn cells stably expressing human SGLT2; type: cell-based; settings: read-out: hSGLT2 IC50
Sequence of human SGLT2 (P31639 whole entry): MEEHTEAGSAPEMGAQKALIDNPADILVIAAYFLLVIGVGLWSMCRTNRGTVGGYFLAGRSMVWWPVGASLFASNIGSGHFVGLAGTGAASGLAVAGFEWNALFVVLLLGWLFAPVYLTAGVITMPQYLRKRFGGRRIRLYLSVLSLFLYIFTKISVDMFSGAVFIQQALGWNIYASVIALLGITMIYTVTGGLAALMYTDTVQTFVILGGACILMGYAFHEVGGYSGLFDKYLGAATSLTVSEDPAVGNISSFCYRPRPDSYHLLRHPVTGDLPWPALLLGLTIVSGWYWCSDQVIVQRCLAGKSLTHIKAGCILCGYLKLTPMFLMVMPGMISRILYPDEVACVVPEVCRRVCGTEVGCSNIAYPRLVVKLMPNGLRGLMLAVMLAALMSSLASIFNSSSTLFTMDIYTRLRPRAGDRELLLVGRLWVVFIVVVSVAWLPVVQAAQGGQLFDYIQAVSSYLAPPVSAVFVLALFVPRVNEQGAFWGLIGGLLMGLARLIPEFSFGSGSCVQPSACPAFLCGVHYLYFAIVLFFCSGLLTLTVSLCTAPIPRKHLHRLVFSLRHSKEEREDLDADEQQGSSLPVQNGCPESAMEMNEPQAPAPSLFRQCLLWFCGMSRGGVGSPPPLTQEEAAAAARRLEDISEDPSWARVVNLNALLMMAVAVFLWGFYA
Source text: The SGLT2 functional assay was designed to detect the inhibition of methyl-alpha-D glucopyranoside (AMG—a non-metabolizable form of glucose) uptake via the SGLT2 transporter. The SGLT2 transporter recovers glucose from the proximal tubules of the kidney; its inhibition results in sugar wasted in the urine. The positive control compound, Phlorizin, is a known inhibitor of glucose uptake for SGLT2 and was used for comparing the high percent effect of SGLT2 inhibition of the test compounds.
CHO-FlpIn (Invitrogen, Carlsbad, Calif.) cells stably expressing human SGLT2 (pcDNA5/FRT) were plated in Iso-TC 96 well plates (Perkin Elmer, Waltham, Mass.) at a density of 100,000 cells/well in 100 microL of growth media (1:1 F-12/DMEM media (Gibco, Carlsbad, Calif.), 10% FBS (Sigma, St. Louis Mo.), 1× Pen/Strep (Gibco, Carlsbad, Calif.), 600 microg/mL Hygromycin (Invitrogen, Carlsbad, Calif.)). Prior to treating with test compound, confluent cells were serum starved for 2 hours at 37° C. in 1:1 F-12/DMEM media, replacing with fresh F-12/DMEM media after 1 hour. […] After incubation, cells were washed twice with ice cold wash buffer (uptake buffer containing 200 microM Phlorizin (Sigma), air dried and lysed in 30 microL of 200 mM NaOH and 1% SDS buffer on an orbital shaker. Microscint 40 (Perkin Elmer, Waltham, Mass.) was added to the lysed cells (giving a final volume of 200 microL) and mixed by orbital shaking for 30 minutes. Plates were stored in the dark overnight and quantitated in the 1540 Microbeta Trilux (Wallac, Waltham, Mass.) using a normalized protocol for ^14C detection. The percent effect of test compounds to inhibit AMG uptake was calculated using the following calculation: [% Effect=((ZPE−T)/(ZPE−HPE))×100%] where “ZPE” is the corrected counts per minute (CCPM) in control wells containing 0.5% DMSO, “T” is the CCPM in wells containing test compound at various concentrations of the standard curve, and “HPE” is the high percent effect referring to the CCPM in control wells containing 10 microM Phlorizin. The IC50 values were calculated using a dose response equation and are summarized for the compounds tested in Table 1. **For test compound 1, cells were pre-incubated with test compound 1 for 15 minutes prior to the addition of the appropriate amount of AMG (40 nCi AMG [U-^14C] (Perkin Elmer, Waltham, Mass.) in unlabelled AMG (Aldrich, St. Louis, Mo.)) per well yielding a final concentration of 200 microM AMG. […]

hSGLT1 = hSGLT1 (Homo sapiens (Human), UniProt P13866); test: hSGLT1 inhibition (Table 1); type: cell-based; settings: individual runs (Run No.)
Sequence of hSGLT1 (P13866 whole entry): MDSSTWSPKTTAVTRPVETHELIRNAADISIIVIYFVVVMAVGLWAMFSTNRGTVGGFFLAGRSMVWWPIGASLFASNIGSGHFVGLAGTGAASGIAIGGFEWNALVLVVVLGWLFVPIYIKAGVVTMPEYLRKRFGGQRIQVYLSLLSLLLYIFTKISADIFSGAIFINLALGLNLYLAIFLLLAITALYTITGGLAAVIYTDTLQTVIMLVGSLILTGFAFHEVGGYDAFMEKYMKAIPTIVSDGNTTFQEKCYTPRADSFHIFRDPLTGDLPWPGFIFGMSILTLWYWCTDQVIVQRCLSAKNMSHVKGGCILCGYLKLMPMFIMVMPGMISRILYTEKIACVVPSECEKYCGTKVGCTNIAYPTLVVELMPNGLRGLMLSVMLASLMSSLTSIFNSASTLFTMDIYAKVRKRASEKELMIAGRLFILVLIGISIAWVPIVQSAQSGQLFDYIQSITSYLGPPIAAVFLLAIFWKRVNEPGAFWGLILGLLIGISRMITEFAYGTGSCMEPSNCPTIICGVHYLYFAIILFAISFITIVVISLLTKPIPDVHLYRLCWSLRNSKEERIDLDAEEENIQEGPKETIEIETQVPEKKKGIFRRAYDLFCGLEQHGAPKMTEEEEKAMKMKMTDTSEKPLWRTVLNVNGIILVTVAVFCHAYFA

[1] = final concentration of 11.33 microM AMG, individual runs (Run No.)

SMILES	IC50 (human SGLT2; ** final concentration of 200 microM AMG) [nM]	melting point [°C]	IC50 (hSGLT1)	IC50 (human SGLT2; [1])
OC[C@@]12CO[C@@](c3ccc(Cl)c(Cc4ccc(O)cc4)c3)(O1)[C@H](O)[C@@H](O)[C@@H]2O [Example 1, (1S,2S,3S,4R,5S)-5-[4-chloro-3-(4-hydroxy-benzyl)-phenyl]-1-hydroxymethyl-6,8-dioxa-bicyclo[3.2.1]octane-2,3,4-triol]	2.6			
CCOc1ccc(Cc2cc([C@]34OC[C@](COC(C)=O)(O3)[C@@H](OC(C)=O)[C@H](OC(C)=O)[C@H]4OC(C)=O)ccc2Cl)cc1 [Example 2, Acetic acid (1R,2S,3S,4R,5S)-3,4-diacetoxy-1-acetoxymethyl-5-[4-chloro-3-(4-ethoxy-benzyl)-phenyl]-6,8-dioxa-bicyclo[3.2.1]oct-2-yl ester]		134.3	10 µM	1090 nM and 1770 nM
CCOc1ccc(Cc2cc([C@]34OC[C@](COC(C)=O)(O3)[C@@H](O)[C@H](O)[C@H]4O)ccc2Cl)cc1 [Example 3, Acetic acid (1R,2S,3S,4R,5S)-5-[4-chloro-3-(4-ethoxy-benzyl)-phenyl]-2,3,4-trihydoxy-6,8-dioxa-bicyclo[3.2.1]oct-1-ylmethyl ester]			3.47 µM and 5.83 µM	
CCOC(=O)OC[C@@]12CO[C@@](c3ccc(Cl)c(Cc4ccc(OCC)cc4)c3)(O1)[C@H](O)[C@@H](O)[C@@H]2O [Example 4, Carbonic acid (1R,2S,3S,4R,5S)-5-[4-chloro-3-(4-ethoxy-benzyl)-phenyl]-2,3,4-trihydroxy-6,8-dioxa-bicyclo[3.2.1]oct-1-ylmethyl ester ethyl ester]			3.36 µM	45.9 nM
CCOc1ccc(Cc2cc([C@]34OC[C@](CF)(O3)[C@@H](O)[C@H](O)[C@H]4O)ccc2Cl)cc1 [Example 8, (1S,2S,3S,4R,5S)-5-[4-Chloro-3-(4-ethoxy-benzyl)-phenyl]-1-fluoromethyl-6,8-dioxa-bicyclo[3.2.1]octane-2,3,4-triol]			1.97 µM and 1.89 µM and 2 µM	4 nM (2×) and 3 nM
